The assay addresses HIV-1 protease (Human immunodeficiency virus type 1 group M subtype B, UniProt P04585). Description: biochemical. The conditions noted are these: for IC50: HIV-1 Protease IC50; for HIV-1 Protease % Inhib: dose 100.000 uM; for inhibition at 1 µM: read-out: HIV-1 Protease % Inhib, dose 1.000 uM; for inhibition at 100 µM: read-out: HIV-1 Protease % Inhib, dose 100.000 uM; for inhibition at 20 µM: read-out: HIV-1 Protease % Inhib, dose 20.000 uM; for inhibition at 200 µM: read-out: HIV-1 Protease % Inhib, dose 200.000 uM; for inhibition at 0.123 µM: read-out: HIV-1 Protease % Inhib, dose 0.123 uM; for inhibition at 0.37 µM: read-out: HIV-1 Protease % Inhib, dose 0.370 uM. As to the method:
The HIV protease screening assay is based on fluorescently labeled substrate which can be resolved from nonlabeled cleavage product using special beads coated with streptavidin. The substrate is biotinylated at the amino terminal arginine and fluorescently labeled with fluorescein isothiocynate (FITC) at the carboxyl terminal lysine. This assay has been employed to detect novel, nonpeptidic inhibitors of HIV-1 protease. Substrate (20 μl of 0.2 μM), sample (10 μl of desired concentration), and enzyme (10 μl of 0.1 μM) are added to a 96 well pandex plate. The assay is run in 0.1M sodium acetate buffer at pH 5.5 in the presence of 1.0M sodium chloride and 0.05% NP-40 with incubated in the dark for one hour at room temperature. Strepavidin coated polystyrene beads {40 μl of 0.1% (w/v)} are added and the plate is incubated in the dark for an additional half hour. The labeled cleavage product is separated from the unreacted substrate via filtration and is read on the Idexx screen machine. The data are analyzed by appropriate computer algorithms to ascertain percent inhibition values.

[1] abbreviates: read-out: HIV-1 Protease % Inhib, dose 10.000 uM.
Where [2] appears, read: dose 10.000 uM, read-out: HIV-1 Protease % Inhib.
Where [3] appears, read: dose 30.000 uM, read-out: HIV-1 Protease % Inhib.
Where [4] appears, read: read-out: HIV-1 Protease % Inhib, dose 1.100 uM.
The mark [5] stands for this setting: read-out: HIV-1 Protease % Inhib, dose 3.300 uM.
Where [6] appears, read: read-out: HIV-1 Protease % Inhib, dose 30.000 uM.

The term IC50 denotes the concentration at which inhibition is half-maximal.

Several values for one entry are separate records, joined by “and”; a condition that tells them apart may be missing. Identical values can stand only once. Like-named read-outs stand apart in the source and are kept apart here. Bounds are passed on as bounds.

`CC(c1cccc(C(=O)NCc2nc3ccccc3[nH]2)c1)c1c(O)c2ccccc2oc1=O` (centres unmarked) [Example 26, Coumarin, 3-[1-[3-[[[(2-benzimidazo131)methyl]amino]carbonyl]phenyl]ethyl]-4-hydroxy]: the IC50 worked out at 20.3 µM, the “HIV-1 Protease % Inhib” value is given as 80%, the inhibition at 1 µM is < 10% and the inhibition at 100 µM worked out at 95%. The inhibition at 10 µM under setting [1] worked out at 53.6%.

For `COCCOCCC1CCCCCc2c1oc(=O)c(C(c1ccccc1)C1CC1)c2O` (centres unmarked) [Example 172, 3-(Cyclopropylphenylmethyl)-5,6,7,8,9,10-hexahydro-4-hydroxy-10-[2-(2-methoxyethoxy)ethyl]-2H-cycloocta[b]pyran-2-one], the inhibition at 1.1 µM (dose 1.100 uM, read-out: HIV-1 Protease % Inhib) turned out to be 31.9%. Moreover, the inhibition at 3.3 µM (dose 3.300 uM, read-out: HIV-1 Protease % Inhib) was 73.5%. Further, under setting [2], the inhibition at 10 µM was 97.8%. For the same compound, the inhibition at 30 µM under setting [3] stood at 110%.

In the case of `O=c1oc2ccccc2c(O)c1CCCc1ccccc1` [Example 2, 4-Hydroxy-3-(3-phenylpropyl)coumarin], the inhibition at 20 µM was 48.1%, the inhibition at 100 µM is 63.6% and the inhibition at 200 µM came to 97.5%. Further, the inhibition at 10 µM under setting [1] was 15.6%.

Turning to `COc1ccc(S(=O)(=O)Nc2cccc(C(c3c(O)c4c(oc3=O)CCCCCC4)C3CC3)c2)cc1OC` (centres unmarked) [Example 335, N-[3-[Cyclopropyl(5,6,7,8,9,10-hexahydro-4-hydroxy-2-oxo-2H-cycloocta[b]pyran-3-yl)methyl]phenyl]-3,4-dimethoxy-benzenesulfonamide], the inhibition at 0.123 µM is 48.7% and the inhibition at 0.37 µM came to 82.9%. The inhibition at 1.1 µM under setting [4] was 90.3%. For the same compound, under setting [5], the inhibition at 3.3 µM stood at 96.8%. In addition, under setting [1], the inhibition at 10 µM was 96.5%. Moreover, under setting [6], the inhibition at 30 µM was 106%.

With `CCC(c1ccccc1)c1c(O)c2cc(N)ccc2oc1=O` (centres unmarked) [Example 96, Coumarin, 6-amino-4-hydroxy-3-(1-phenylpropyl)-], the inhibition at 1 µM was < 10% and the inhibition at 100 µM was 48.7%. Also, under setting [1], the inhibition at 10 µM is < 10%.

With `O=c1oc2ccccc2c(O)c1C(CCc1ccccc1)c1ccccc1` (centres unmarked) [Example 16, 4-Hydroxy-3-(1,3-diphenylpropyl)-coumarin], the inhibition at 1 µM is < 10%. Also, the inhibition at 10 µM under setting [1] was 48.3%.

Consider `O=c1oc2ccccc2c(O)c1C(CCO)c1ccccc1` (centres unmarked) [Example 160, 4-Hydroxy-3-(3-hydroxy-1-phenyl-propyl)-chromen-2-one], for which the inhibition at 100 µM amounted to 82.6%. Also, the inhibition at 0.41 µM (read-out: HIV-1 Protease % Inhib, dose 0.410 uM) was < 10%. Moreover, under “read-out: HIV-1 Protease % Inhib, dose 1.230 uM”, the inhibition at 1.23 µM is < 10%. For the setting “read-out: HIV-1 Protease % Inhib, dose 3.700 uM”, the inhibition at 3.7 µM was < 10%. Moreover, the inhibition at 11 µM (read-out: HIV-1 Protease % Inhib, dose 11.000 uM) was found to be 14.2%. For the same compound, the inhibition at 33 µM (read-out: HIV-1 Protease % Inhib, dose 33.000 uM) amounted to 40.4%.

Turning to `CCC(c1cccc(NC(=O)CCSc2nc3ccccc3s2)c1)c1c(O)c2ccccc2oc1=O` (centres unmarked) [Example 65, Coumarin, 3-[1-[3-[[3-[(2-benzothiazolyl)thio]-1-oxopropyl]amino]phenyl]propyl]4-hydroxy-], the inhibition at 1 µM was < 10% and the inhibition at 100 µM worked out at 86.1%. For the same compound, the inhibition at 10 µM under setting [1] came to 48.4%.

For the compound `CC(C)(C)OC(=O)NCC(=O)N(Cc1ccccc1)c1cccc(C(c2c(O)c3c(oc2=O)CCCCCC3)C2CC2)c1` (centres unmarked) [Example 216, Carbamic acid, [2-[[3-[cyclopropyl(5,6,7,8,9,10-hexahydro4-hydroxy-2-oxo-2H-cycloocta[b]pyran-3-yl)methyl]phenyl](phenylmethyl)amino]-2-oxyethyl]-, 1,1-dimethylethyl ester], the inhibition at 10 µM under setting [2] was 10.9%. In addition, under setting [3], the inhibition at 30 µM was 31.4%.

Turning to `CCC(CC(=O)Nc1cccc(C(CC)c2c(O)c3ccccc3oc2=O)c1)c1ccccc1` (centres unmarked) [Example 49, Coumarin, 4-hydroxy-3-[1-[3-[(1-oxo-3-phenylpentyl)amino]phenyl]propyl]-], the inhibition at 1 µM is < 10% and the inhibition at 100 µM worked out at 60.3%. In addition, the inhibition at 10 µM under setting [1] was found to be 21.9%.

For `CC(c1cccc(C#N)c1)c1c(O)c2ccccc2oc1=O` (centres unmarked) [Example 101, Coumarin, 3-[1-(3-Cyanophenyl)ethyl]-4-hydroxy-], the inhibition at 1 µM is < 10% and the inhibition at 100 µM is 39.2%. The inhibition at 10 µM under setting [1] is < 10%.

With `CCC(c1ccccc1)c1c(O)c2ccc3ccccc3c2oc1=O` (centres unmarked) [Example 99, 2H-Naphtho[1,2-b]pyran-2-one, 4-hydroxy-3-(1-phenylpropyl)-], the inhibition at 1 µM was < 10% and the inhibition at 100 µM came out at 43.3%. Under setting [1], the inhibition at 10 µM was < 10%.

Turning to `CC(c1ccccc1)c1c(O)c2ccccc2oc1=O` (stereo not drawn) [Example 6, 4-Hydroxy-3-(α-methylbenzyl)-coumarin], the inhibition at 20 µM is 65.6%, the inhibition at 100 µM is 88.5% and the inhibition at 200 µM came out at 75.2%. Moreover, the inhibition at 10 µM under setting [1] stood at 29.2%.

For the compound `CCC(c1cccc(NS(=O)(=O)c2ccc(C#N)cc2)c1)c1c(O)c2c(oc1=O)CCCCCC2` (centres unmarked) [Example 222, Benzenesulfonamide, 4-cyano-N-[3-[1-(5,6,7,8,9,10-hexahydro-4-hydroxy-2-oxo-2H-cycloocta[b]pyran-3-yl)propyl]phenyl]-], the inhibition at 0.123 µM stood at 80.4% and the inhibition at 0.37 µM is 94.1%. Also, under setting [4], the inhibition at 1.1 µM came to 103%. Moreover, the inhibition at 3.3 µM under setting [5] stood at 110%. Besides, the inhibition at 10 µM under setting [1] worked out at 111%. Also, under setting [6], the inhibition at 30 µM worked out at 110%.

Consider `CCC(c1cccc(OC)c1)c1c(O)c2ccccc2oc1=O` (centres unmarked) [Example 102, Coumarin, 4-hydroxy-3-[1-(3-methoxyphenyl)propyl]-], for which the “HIV-1 Protease % Inhib” value came out at 75.63%, the inhibition at 1 µM is < 10% and the inhibition at 100 µM was determined as 78.8%. Further, the inhibition at 10 µM under setting [1] was 24%.

With `COc1ccc2c(c1)CCCC2c1c(O)c2ccccc2oc1=O` (centres unmarked) [Example 76, 4-Hydroxy-3-(1-(6-methoxy)-1,2,3,4-tetrahydronaphthyl)-coumarin], the inhibition at 1 µM was < 10% and the inhibition at 100 µM is 96.5%. The inhibition at 10 µM under setting [1] turned out to be 47.8%.

`N#Cc1ccccc1S(=O)(=O)Nc1cccc(C(c2c(O)c3c(oc2=O)CCCCCC3)C2CC2)c1` (centres unmarked) [Example 339, 2-Cyano-N-[3-[cyclopropyl(5,6,7,8,9,10-hexahydro-4-hydroxy-2-oxo-2H-cycloocta[b]pyran-3-yl)methyl]phenyl]-benzenesulfonamide]: the inhibition at 0.123 µM is 53.5% and the inhibition at 0.37 µM turned out to be 81.3%. In addition, the inhibition at 1.1 µM under setting [4] was found to be 94.9%. Besides, the inhibition at 3.3 µM under setting [5] is 99.2%. Moreover, the inhibition at 10 µM under setting [1] amounted to 105%. Besides, the inhibition at 30 µM under setting [6] was 99.8%.

Regarding `COc1ccc2c(O)c(C(C3CC3)C3CC3)c(=O)oc2c1` [Example 80, Coumarin, 3-[bis(cyclopropyl)methyl]-4-hydroxy-7-methoxy-], the IC50 was found to be 8.5 µM, the inhibition at 1 µM was < 10% and the inhibition at 100 µM worked out at 102%. Besides, the inhibition at 10 µM under setting [1] was 62.6%.

Take `O=C(O)c1ccc(S(=O)(=O)Nc2cccc(C(c3c(O)c4c(oc3=O)CCCCCC4)C3CC3)c2)cc1` (centres unmarked) [Example 276, 4-[[[3-[Cyclopropyl(5,6,7,8,9,10-hexahydro-4-hydroxy-2-oxo-2H-cycloocta[b]pyran-3-yl)methyl]phenyl]amino]sulfonyl]-benzoic acid]: the inhibition at 0.123 µM was 53.4% and the inhibition at 0.37 µM was 92.8%. Moreover, the inhibition at 1.1 µM under setting [4] is 99.3%. Besides, the inhibition at 3.3 µM under setting [5] stood at 94.7%. The inhibition at 10 µM under setting [1] is 112%. Also, the inhibition at 30 µM under setting [6] was found to be 124%.

On to `CC(c1cccc(C(=O)NCc2ccccc2)c1)c1c(O)c2ccccc2oc1=O` (centres unmarked) [Example 28, Coumarin, 4-hydroxy-3-[1-[3-[[(phenylmethyl)amino]carbonyl]phenyl]ethyl]-], for which the inhibition at 1 µM is < 10% and the inhibition at 100 µM is 81%. Under setting [1], the inhibition at 10 µM turned out to be 17.9%.

As to `Cc1cc(C)c2c(c1)C(c1c(O)c3ccccc3oc1=O)CCO2` (centres unmarked) [Example 153, 4-Hydroxy-6',8'-Dimethyl-3',4'-dihydro-2'H-[3',4']bicromenyl-2-one], the “HIV-1 Protease % Inhib” value is 79.57% and 115.36%; the inhibition at 1 µM was < 10%. In addition, the inhibition at 10 µM under setting [1] turned out to be 34%.

For the compound `CC(C)C(c1cccc(NS(=O)(=O)c2ccc(F)cc2)c1)c1c(O)c2c(oc1=O)CCCCCC2` (centres unmarked) [Example 418, Benzenesulfonamide, N-[3-[1-(5,6,7,8,9,10-hexahydro-4-hydroxy-2-oxo-2H-cycloocta[b]pyran-3-yl)-2-methylpropyl]phenyl]4-fluoro-], the inhibition at 0.123 µM was found to be 81.8% and the inhibition at 0.37 µM turned out to be 87.5%. Also, the inhibition at 1.1 µM under setting [4] amounted to 98.6%. Moreover, under setting [5], the inhibition at 3.3 µM worked out at 110%. In addition, the inhibition at 10 µM under setting [1] is 119%. In addition, under setting [6], the inhibition at 30 µM was 123%.

(Values after US5686486A, “4-hydroxy-benzopyran-2-ones and 4-hydroxy-cycloalkyl[b]pyran-2-ones useful to treat retroviral infections” (priority 1995, dated 1997).)
